Laboratory results published in patent publication US10111435B2, “Herbicidal compositions containing N-(1,3,4-oxadiazol-2-yl)-aryl carboxylic acid amides” (BAYER CROPSCIENCE AKTIENGESELLSCHAFT, priority 2013, dated 2018).

Legend:
Assay type in all cases: in vivo
Poa annua (POAAN) = experiment: greenhouse post-emergence herbicidal efficacy against POAAN
Experimental: (§1) All trials whose results are shown were conducted in a greenhouse by the methodology specified below. The effect of the inventive herbicidal compositions was examined on the following harmful plants 14 and 21 days after application:
(§2) Echinochloa crus-galli (ECHCG), Eleusine indica (ELEIN), Setaria viridis (SETVI), Amaranthus retroflexus (AMARE), Chenopodium album (CHEAL), Kochia scoparia (KCHSC), Solanum nigrum (SOLNI), Avena fatua (AVEFA), Bromus sterilis (BROST), Lolium multiflorum (LOLMU), Phalaris minor (PHAMI), Poa annua (POAAN), Galium aparine (GALAP), Matricaria inodora (MATIN) and Polygonum convolvulus (POLCO).
(§3) The harmful plant seeds were sown in pots (diameter 8 cm) with sandy loam soil and germinated under optimal conditions. The inventive herbicidal compositions or the active ingredients alone were applied post-emergence to the planted pots with a spray volume of 300 L/ha. The trial was conducted in a greenhouse under optimum growth conditions. The herbicidal effects were assessed visually by comparison of untreated and treated plants. The percentages mean: 0%=no effects, 100%=the plants die off completely).
(§4) The abbreviations mean: • a.i.=active ingredient • E^C=expected value according to Colby (E^C=A+B−A×B/100) • Diff: =difference (%) of measured value from expected value (%) (measured value minus expected value)
(§5) Assessment: • measured value E is greater than E^C:->synergism (+ diff.) • measured value E equals E^C:->additive effect • measured value E is smaller than E^C:->antagonism(− diff.)

Bromus sterilis (BROST) = experiment: greenhouse post-emergence herbicidal efficacy against BROST
Experimental: as §1, §2, §3, §4, §5

[1] = tested on: Polygonum convolvulus (POLCO); experiment: greenhouse post-emergence herbicidal efficacy against POLCO
Experimental: as §1, §2, §3, §4, §5

Phalaris minor (PHAMI) = experiment: greenhouse post-emergence herbicidal efficacy against PHAMI
Experimental: as §1, §2, §3, §4, §5

[2] = tested on: Chenopodium album (CHEAL); experiment: greenhouse post-emergence herbicidal efficacy against CHEAL; settings: 21 days after application
Experimental: as §1, §2
as §3, with “completely). The percentages are used to calculate interactions between individual treatments and combination treatments according to S. R. Colby, Weeds 15, pages 20 to 22 (1967).” for “completely).”
as §4, §5

[3] = tested on: Lolium multiflorum (LOLMU); experiment: greenhouse post-emergence herbicidal efficacy against LOLMU
Experimental: as §1, §2, §3, §4, §5

[4] = tested on: Matricaria inodora (MATIN); experiment: greenhouse post-emergence herbicidal efficacy against MATIN
Experimental: as §1, §2, §3, §4, §5

Kochia scoparia (KCHSC) = experiment: greenhouse post-emergence herbicidal efficacy against KCHSC
Experimental: as §1, §2
as §3, with “completely). The percentages are used to calculate interactions between individual treatments and combination treatments according to S. R. Colby, Weeds 15, pages 20 to 22 (1967).” for “completely).”
as §4, §5

Eleusine indica (ELEIN) = experiment: greenhouse post-emergence herbicidal efficacy against ELEIN
Experimental: as §1, §2
as §3, with “completely). The percentages are used to calculate interactions between individual treatments and combination treatments according to S. R. Colby, Weeds 15, pages 20 to 22 (1967).” for “completely).”
as §4, §5

Galium aparine (GALAP) = experiment: greenhouse post-emergence herbicidal efficacy against GALAP
Experimental: as §1, §2, §3, §4, §5

Avena fatua (AVEFA) = experiment: greenhouse post-emergence herbicidal efficacy against AVEFA
Experimental: as §1, §2, §3, §4, §5

[5] = 14 days after application, g of a.i./ha: A1-57 12.5, aclonifen 200
[6] = 14 days after application, g of a.i./ha: A1-57 12.5, aclonifen 800
[7] = 14 days after application, g of a.i./ha: A1-57 50, aclonifen 200
[8] = 14 days after application, g of a.i./ha: A1-57 50, aclonifen 800
[9] = 21 days after application, g of a.i./ha: A1-57 12.5, aclonifen 800
[10] = 21 days after application, g of a.i./ha: A1-57 50, aclonifen 800
[11] = 21 days after application, g of a.i./ha: A1-57 12.5, aclonifen 200
[12] = 21 days after application, 1 g of a.i./ha
[13] = 14 days after application, 50 g of a.i./ha
[14] = 14 days after application, 100 g of a.i./ha
[15] = 21 days after application, g of a.i./ha: A1-55 2.5, glufosinate-ammonium 100
[16] = 21 days after application, g of a.i./ha: A1-55 10, glufosinate-ammonium 100
[17] = 21 days after application, g of a.i./ha: A1-55 10, glufosinate-ammonium 25
[18] = 14 days after application, 25 g of a.i./ha
[19] = 21 days after application, g of a.i./ha: A1-55 2.5, glufosinate-ammonium 25

Compound `Cc1nnc(NC(=O)c2ccc(S(C)(=O)=O)c(OCCF)c2Cl)o1` [A1-57] has an Efficacy (Poa annua (POAAN); [5]) of 15%, an Efficacy (Poa annua (POAAN); [6]) of 15% and an Efficacy (Poa annua (POAAN); [7]) of 50%. The Efficacy (Poa annua (POAAN); [8]) was 50%, the Efficacy (Poa annua (POAAN); [9]) was 10% and the Efficacy (Poa annua (POAAN); 21 days after application, g of a.i./ha: A1-57 50, aclonifen 200) was 35%. For the same compound, the Efficacy (Poa annua (POAAN); [10]) was 35%, the Efficacy (Bromus sterilis (BROST); [5]) was 0% and the Efficacy (Bromus sterilis (BROST); [6]) was 0%. It also gave an Efficacy (Bromus sterilis (BROST); [8]) of 40%, an Efficacy (Bromus sterilis (BROST); [9]) of 0% and an Efficacy (Bromus sterilis (BROST); [10]) of 15%. For the same compound, the Efficacy [1, 5] was 65%, the Efficacy [1, 6] was 65% and the Efficacy [1, 11] was 50%. For the same compound, the Efficacy (Phalaris minor (PHAMI); [5]) was 50%, the Efficacy (Phalaris minor (PHAMI); [6]) was 50% and the Efficacy (Phalaris minor (PHAMI); [7]) was 70%. The Efficacy (Phalaris minor (PHAMI); [11]) was 20%, the Efficacy (Phalaris minor (PHAMI); [9]) was 20% and the Efficacy ([2]; 1 g of a.i./ha) was 30%. The Efficacy [3, 6] was 0%, the Efficacy [3, 8] was 35% and the Efficacy [4, 5] was 60%. The Efficacy [4, 6] was 60%, the Efficacy [4, 8] was 85% and the Efficacy [4, 10] was 80%. The Efficacy (Kochia scoparia (KCHSC); 14 days after application, 1 g of a.i./ha) was 40%, the Efficacy (Kochia scoparia (KCHSC); [12]) was 20% and the Efficacy (Eleusine indica (ELEIN); [12]) was 10%. It also gave an Efficacy (Galium aparine (GALAP); [5]) of 30%, an Efficacy (Galium aparine (GALAP); [7]) of 60% and an Efficacy (Galium aparine (GALAP); [10]) of 40%. For the same compound, the Efficacy (Avena fatua (AVEFA); 14 days after application, 12.5 g of a.i./ha) was 0%, the Efficacy (Avena fatua (AVEFA); [13]) was 0% and the Efficacy (Avena fatua (AVEFA); [5]) was 0%. For the same compound, the Efficacy (Avena fatua (AVEFA); [9]) was 0%.
For `CP(=O)(O)CCC(N)C(=O)O` (centres unmarked) [glufosinate-ammonium], the Efficacy (Poa annua (POAAN); [14]) was 0%, the Efficacy (Poa annua (POAAN); [15]) was 5% and the Efficacy (Poa annua (POAAN); [16]) was 5%. For the same compound, the Efficacy (Bromus sterilis (BROST); [14]) was 15%, the Efficacy (Bromus sterilis (BROST); [15]) was 15% and the Efficacy (Bromus sterilis (BROST); [17]) was 0%. For the same compound, the Efficacy [1, 18] was 0%, the Efficacy [1, 14] was 25% and the Efficacy [1, 17] was 0%. It also gave an Efficacy [1, 16] of 5%, an Efficacy (Phalaris minor (PHAMI); [18]) of 0% and an Efficacy (Phalaris minor (PHAMI); [14]) of 15%. It also gave an Efficacy (Phalaris minor (PHAMI); [19]) of 0%, an Efficacy (Phalaris minor (PHAMI); [15]) of 10% and an Efficacy (Phalaris minor (PHAMI); [17]) of 0%. For the same compound, the Efficacy (Phalaris minor (PHAMI); [16]) was 10%, the Efficacy [3, 18] was 0% and the Efficacy [3, 14] was 25%. It also gave an Efficacy [3, 15] of 15%, an Efficacy [3, 16] of 15% and an Efficacy [4, 18] of 0%. The Efficacy [4, 14] was 30%, the Efficacy [4, 19] was 0% and the Efficacy [4, 15] was 15%. For the same compound, the Efficacy [4, 17] was 0%, the Efficacy [4, 16] was 15% and the Efficacy (Galium aparine (GALAP); [18]) was 0%. It also gave an Efficacy (Galium aparine (GALAP); [17]) of 0%, an Efficacy (Avena fatua (AVEFA); [18]) of 0% and an Efficacy (Avena fatua (AVEFA); [14]) of 25%. For the same compound, the Efficacy (Avena fatua (AVEFA); [15]) was 20% and the Efficacy (Avena fatua (AVEFA); [16]) was 20%.
In the case of `O=C(O)CNCP(=O)(O)O` [glyphosate], the Efficacy ([2]; 50 g of a.i./ha) is reported as 30%, the Efficacy (Kochia scoparia (KCHSC); [13]) is reported as 30% and the Efficacy (Kochia scoparia (KCHSC); 21 days after application, 50 g of a.i./ha) is reported as 10%. The Efficacy (Kochia scoparia (KCHSC); 21 days after application, 200 g of a.i./ha) was 30% and the pest or weed control at 50 g/ha (Eleusine indica (ELEIN); Eleusine indica, post-emergence, 504 h, read-out: Efficacy) was 0%.
